Data on three molecules can be found in US9241962B2, “Water extract of Antrodia camphorata for immunostimulatory effect and preparation method thereof” (Kaohsiung Medical University, priority 2009, dated 2016).

Assay type in all cases: cell-based, human
Test [1] deals with DCs. Briefly: Polymyxin B test of CD86 and HLA-DR expression on induced DCs. Conditions: DCs treated with polymyxin B, then LPS or ACW; FIG. 7. As for the experimental part: Polymyxin B is an antibiotic used for inactivating potential LPS contamination when evaluating the activity of different agents on immune cells. Therefore, whether polymyxin B blocks the phenotypic maturation of ACW-induced DCs is determined. […] Accordingly, ACW is able to stimulate the maturation of DCs without LPS contamination.

The test system of test [2] is DCs. Briefly: IL-12 production in culture supernatants of stimulated DCs. Details: unit not given here. The following applies: LPS; PBS 235.53±2.54; FIG. 9. As for the experimental part: The preparation method of DCs was mainly prepared and modified from Lin et al, 2006. First, peripheral blood mononuclear cells (PBMCs) were obtained from 12 healthy donors by centrifugation with the Ficoll-Hypaque (Amersham Bioscience, Uppsala, Sweden) density gradient centrifugation. PBMCs were cultured in RPMI 1640 medium supplemented with 10% fetal calf serum, 1 mM L-glutamin, 100 μg/ml streptomycin and 100 U/ml penicillin for 2 hours. The nonadherent cells were removed, and the T cells were purified by nylon wool separation, as the source of mononuclear T lymphocytes. T cells were loaded into the column and the eluted nonadherent cell fraction was rich in T cells. As determined by FACS, the resulting cell population was 80% T cells with a high expression of CD3. The adherent cells were cultured for 6 days in RPMI 1640 medium with 50 ng/ml of granulocyte-macrophage colony-stimulating factor (GM-CSF) and interleukin-4 (IL-4). […] ImDCs were further treated with phosphate buffered saline (PBS), LPS (100 ng/ml) and different doses of ACW for an additional 2 days and then assessed by flow cytometry.
Levels of IL-12, IL-10, IFN-γ and IL-4 in the culture supernatants from DCs or T cells were evaluated by using highly sensitive human cytokine assay kits (R&D Systems, Minneapolis, USA) according to the manufacturer's instructions.

The subject of test [3] is DCs. In words: Inhibition of MAPKs and PI3K/Akt activation before ACW stimulation of DCs. Conditions: inhibitor 25 μM for 2 hours before ACW; for IL-12 production of DCs induced by ACW after inhibitor pretreatment: FIG. 13(B). The procedure:
To examine the signal transduction pathways involved in the effects of ACW on DC maturation, DCs were pretreated at 37° C. with ERK inhibitor PD98059 (25 μM), JNK inhibitor SP600125 (25 μM), p38 MAPK inhibitor SB203580 (25 μM) or PI3K/Akt inhibitor LY294002 (25 μM) for 2 hours before stimulation with ACW. After 2 days, phenotyping characteristics of DCs and IL-12 production in the supernatants of DCs were analyzed.

For the molecule lipopolysaccharide [LPS], the “expressions of CD86 and HLA-DR after polymyxin B treatment in advance” value in test [1] is “significantly inhibits the expressions of CD86 and HLA-DR”. The “concentration of IL-12 produced by DCs” value in test [2] is listed as 698.45.

`C[S+]([O-])c1ccc(-c2nc(-c3ccncc3)c(-c3ccc(F)cc3)[nH]2)cc1` (centres unmarked) [SB203580]: in test [3] (FIG. 13(A)), the “CD86 expression of the ACW-treated DCs after inhibitor pretreatment” value is “inhibit CD86 expression”. The “IL-12 production of DCs induced by ACW after inhibitor pretreatment” value in test [3] is listed as “significantly blocks the up-regulation of IL-12 production”.

In the case of `COc1cccc(-c2cc(=O)c3ccccc3o2)c1N` [PD98059], the “IL-12 production of DCs induced by ACW after inhibitor pretreatment” value in test [3] is recorded as “upregulates the IL-12 production”.
